Experimental data published in publication PMC9569450, “Dual Effect of Tryptamine on Prostate Cancer Cell Growth Regulation: A Pilot Study” (International Journal of Molecular Sciences, 2022).

Columns and labels:
RWPE-1 cells = experiment: MTT cell proliferation assay, RWPE-1; type: cell-based; details: Homo sapiens, RWPE-1; MTT, 48 h treatment in FBS-free medium; read-out: IC50 Value (Mean ± SD mM) RWPE-1
Experimental: (§1) PC-3, LNCaP, RWPE-1, HepG2, A549, and PANC-1 cells were purchased from the National Collection of Authenticated Cell Cultures (Shanghai, China). […] All the above cell cultures were supplied with 10% fetal bovine serum and 1% penicillin-streptomycin. RWPE-1 cells were cultured in keratinocyte serum-free medium (K-SFM, Gibco, New York, NY, USA) supplemented with 50 mg/L bovine pituitary extract and 5 μg/L epidermal growth factor (EGF). All cell lines were grown in a humidified atmosphere of 5% CO2 at 37 °C.
(§2) Cells were seeded in 100 μL complete medium in a 96-well plate, at a density of 10,000 cells/well for LNCaP and 5000 cells/well for other cells. Cells were pre-incubated for 24 h to allow for adherence before removal of complete medium and treatment with various concentrations of compounds in fetal bovine serum (FBS)-free medium for 48 h. After treatment, 20 μL/well MTT (5 mg/mL) was added and incubated for 3–4 h at 37 °C, and then 100 μL/well DMSO was added for MTT assay. The plate was shaken on an orbital shaker for 10 min. Absorbance was measured using a microplate reader at 492 nm for the MTT assay (performed in triplicates). Cell viability was normalized to control. Half inhibitory concentration (IC50) was calculated by SPSS Statistics 17.0. […] The experiments were independently repeated two to three times.

HepG2 cells = experiment: MTT cell proliferation assay, HepG2; type: cell-based; details: Homo sapiens, HepG2, 48 h treatment in FBS-free medium, read-out: IC50 Value (Mean ± SD mM) HepG2
Experimental: as §1, §2

PANC-1 cells [1] = experiment: MTT cell proliferation assay, PANC-1; type: cell-based; details: Homo sapiens, PANC-1, 48 h treatment in FBS-free medium, read-out: IC50 Value (Mean ± SD mM) PANC-1
Experimental: as §1, §2

[2] = tested on: A549, HepG2, and PANC-1 cells; experiment: MTT cell proliferation assay, other three cancer cell lines; type: cell-based; details: A549, HepG2, and PANC-1, text summary
Experimental: as §1, §2

[3] = tested on: PC-3, LNCaP, RWPE-1, A549, PANC-1, and HepG2 cells; experiment: MTT cell proliferation assay, all cell lines; type: cell-based; details: all cell lines tested; read-out: IC50 values for all six cell lines tested
Experimental: PC-3, LNCaP, RWPE-1, HepG2, A549, and PANC-1 cells were purchased from the National Collection of Authenticated Cell Cultures (Shanghai, China). PC-3 and A549 cells were cultured in F-12K Nutrient Mixture (Gibco, New York, NY, USA), LNCaP in RPMI 1640 (Gibco, New York, NY, USA), PANC-1 in Dulbecco’s Modified Eagle Medium (DMEM, Gibco, New York, NY, USA), and HepG2 in minimal essential medium (MEM, Gibco, New York, NY, USA). All the above cell cultures were supplied with 10% fetal bovine serum and 1% penicillin-streptomycin. RWPE-1 cells were cultured in keratinocyte serum-free medium (K-SFM, Gibco, New York, NY, USA) supplemented with 50 mg/L bovine pituitary extract and 5 μg/L epidermal growth factor (EGF). All cell lines were grown in a humidified atmosphere of 5% CO2 at 37 °C.
Cells were seeded in 100 μL complete medium in a 96-well plate, at a density of 10,000 cells/well for LNCaP and 5000 cells/well for other cells. Cells were pre-incubated for 24 h to allow for adherence before removal of complete medium and treatment with various concentrations of compounds in fetal bovine serum (FBS)-free medium for 48 h. After treatment, 20 μL/well MTT (5 mg/mL) was added and incubated for 3–4 h at 37 °C, and then 100 μL/well DMSO was added for MTT assay. The plate was shaken on an orbital shaker for 10 min. Absorbance was measured using a microplate reader at 492 nm for the MTT assay (performed in triplicates). Cell viability was normalized to control. Half inhibitory concentration (IC50) was calculated by SPSS Statistics 17.0. The combination index (CI) isobologram equation was used for the quantitative determination of the interaction between two compounds [62]:(1) Combination index CI =CA,x/ICx,A+CB,x/ICx,B where CA,x and CB,x are compound concentrations that […], and ICx,A and ICx,B are compound concentrations that provide the same effect when being used in combination. The experiments were independently repeated two to three times.

PANC-1 cells [4] = experiment: Transwell migration assay, PANC-1; type: cell-based; details: 24 h
Experimental: (§3) Cell migration was evaluated using 8-μm transwell filters (Costar Corning, Schiphol-Rijk, The Netherlands). Cells at a density of 5 × 10^4 were seeded to the upper chamber, and the chamber was filled with FBS-free medium. Cells were incubated overnight to allow for adherence; then, the lower chamber was replaced with 10% FBS medium as a chemo-attractant. Following a 24 h incubation, non-migrating cells on the upper surface of the insert membrane were gently removed by cotton swabs and migrated cells on the lower surface of the insert membrane were fixed by 4% paraformaldehyde and stained with 0.1% crystal violet for 20 min. Migrated cells on each membrane were photographed and counted at 100× magnification field at six random fields.

A549 cells = experiment: Transwell migration assay, A549; type: cell-based; details: 24 h
Experimental: as §3

[5] = UPLC-HRMS detection of tryptamine in serum or tissue samples of xenograft mice; type: in vivo, BALB/c nude mice
Experimental: However, intraperitoneal injection of tryptamine promoted the growth of PC-3 xenograft tumors in nude mice. […] Additionally, it has been reported that the intraperitoneal injections of 10 mg/kg 5-HT increased tumor weight by almost 60% using an orthotopic mouse model of ovarian cancer. As is known, both 5-HT and tryptamine in the blood can be taken up and carried by platelets and released during degranulation, and also various tryptamine-related compounds are substrates of the platelet 5-HT transporter. Thus, the tumor growth promoting effect of intraperitoneal treatment of tryptamine in our study might be similar to the effect of 5-HT, which has long been thought to be related to tumor progression.

[6] = tested on: human colon cancer cell line HT29; details: HT29 as in vitro model of intestinal epithelium; cited from earlier work

NCCc1c[nH]c2ccccc12 [Tryptamine]
IC50 (RWPE-1 cells): 0.71 ± 0.06 mM | IC50 (HepG2 cells): 0.35 ± 0.02 mM | IC50 (PANC-1 cells [1]): 0.38 ± 0.01 mM | IC50 [2]: 350 to 460 µM | IC50 [3]: ≤ 900 µM | migrated cells reduced by (PANC-1 cells [4]; PANC-1, 0.075 mM): 43% | percentage of migrated cells (PANC-1 cells [4]; PANC-1, 0.15 mM): 45% | percentage of migrated cells (PANC-1 cells [4]; PANC-1, 0.3 mM): 27% | migrated cells compared with the control (A549 cells; A549, 0.075 mM): no significant difference | percentage of migrated cells (A549 cells; A549, 0.15 mM): 80% | percentage of migrated cells (A549 cells; A549, 0.3 mM): 63% | tryptamine in serum or tissue samples ([5]; intraperitoneal treatment group): not detected | tryptamine in tissue samples ([5]; intratumoral treatment group): apparent peak | IC50 [6]: 670 ± 90 µM
